Measurements published in paper PMC9006992 (Frontiers in Pharmacology, 2022).

How the values were obtained:
CYP3A4 = experiment: Incubation with recombinant human CYP3A4; format: in vitro ADME; settings: intersystem extrapolation scaling approach; 100 pmol/ml CYP, 10 μM, 60 min
Procedure: (§1) ^14C-ACT-1004-1239 was incubated for 60 min with 100 pmol/ml of the respective recombinant CYP (CYP1A1, CYP1A2, CYP2B6, CYP2C8, CYP2C9, CYP2C19, CYP2D6, or CYP3A4) in 100 mM phosphate buffer (pH 7.4) at a final ^14C-ACT-1004-1239 concentration of 10 μM. The incubation was initiated by addition of the pre-warmed NADPH-regenerating system and terminated by the addition of one volume equivalent acetonitrile. The NADPH-regenerating system was prepared as described in Incubation With HLMs and CYP-Specific Inhibitors. The organic solvent concentration in all incubations was kept at 0.5% (v/v). Control incubations in the absence of the NADPH-regenerating system or CYP, as well as incubations with control bactosomes, were performed in parallel under otherwise identical conditions. The samples were centrifuged for 10 min at 20,800 g and 10°C to obtain the supernatant which was used for HPLC analysis (as described in Analytical Method for Metabolite Profiling). The resulting data were further used to determine their contribution to the metabolic clearance in vitro by applying the intersystem extrapolation scaling approach as described by [Chen et al. (2011)]. […]

CYP2C19 = experiment: Incubation with recombinant human CYP2C19; format: in vitro ADME; settings: intersystem extrapolation scaling approach; 100 pmol/ml CYP, 10 μM, 60 min
Procedure: as §1

CYP2C8 = experiment: Incubation with recombinant human CYP2C8; format: in vitro ADME; settings: intersystem extrapolation scaling approach; 100 pmol/ml CYP, 10 μM, 60 min
Procedure: as §1

[1] = Pharmacokinetics of total 14C-radioactivity in human plasma (microtracer, AMS); format: in vivo; settings: single oral 9.2 μg 14C-ACT-1004-1239 + 100 mg ACT-1004-1239
[2] = Metabolite profiling in human plasma, urine and feces pools (HPLC-AMS); format: in vivo; settings: for Feces % of dose: based on geometric mean of total cumulative excretion in feces; for Urine % of dose: based on geometric mean of total cumulative excretion in urine
Procedure: For each subject, plasma samples were pooled based on the Hamilton pooling scheme ([Hamilton et al., 1981]) with samples collected within 72 h. Thereafter, a single cross-subject plasma pool was prepared by using a constant proportion of each individual Hamilton pool. Proportional pooling was applied for urine and homogenized feces samples. […] A single cross-subject pool for both excreta was prepared by taking a sample representing 10% of each individual pool to obtain a representative pool of at least 95% of the total excreted ^14C across all subjects.
Pooled plasma and feces samples were further purified by liquid-liquid extraction prior to HPLC analysis. The pooled plasma sample (4,000 μl) was extracted with 1200 μl acetonitrile:methanol (80:20, v/v) (Thermo Fisher Scientific, Waltham, MA, United States). After mixing for 1 min, the sample was centrifuged for 10 min at 3,750 rpm and 10°C […]. Thereafter, the supernatant was collected, dried, and aliquoted for analysis. These extraction steps were repeated two additional times with the remaining pellet to obtain a high extraction recovery. The homogenized feces sample (200 mg) was extracted by addition of 800 μl acetonitrile, followed by centrifugation for 5 min at 3,750 rpm and 4°C. The supernatant was collected and dried with nitrogen at 40°C. The remaining pellet was extracted by addition of 800 μl acetonitrile:water (1:1, v/v) followed by a drying process with nitrogen. The dried extract was reconstituted with acetonitrile:mobile phase A (see Analytical Method for Metabolite Profiling) (1:9, v/v) and vortexed for 5 min. […] Urine samples were directly used for analysis.
Metabolite profiles were generated by using HPLC together with an AMS detector. The plasma extract (120 μl), the feces extract (10 μl), and urine (100 μl) were injected onto the HPLC (Agilent 1290, Agilent Technologies, Santa Clara, CA, United States) equipped with a binary pump G4220A (Agilent Technologies), an autosampler G4226A (Agilent Technologies), a column compartment G1316C (Agilent Technologies), and a fraction collector G1364C (Agilent Technologies). […] Mobile phases consisted of 20 mM ammonium formate adjusted to pH 9.5 with ammonium hydroxide (phase A) and a 7:2:1 (v/v/v) mixture of acetonitrile, methanol, and mobile phase A (phase B). […] Following HPLC analysis, pools of HPLC fractions were prepared by taking equivalent portions of consecutive individual fractions for analysis with AMS (SSAMS-250, National Electrostatics Corp., Middleton, WI, United States). The amounts of ^14C in each fraction and fraction pool were summed and compared to the solution injected onto the HPLC for the determination of profile recovery.

[3] = ref Huynh et al., cited from earlier work
[4] = set-up: method as in Richard-Bildstein et al., 2020; settings: ref Richard-Bildstein et al., 2020; cited from earlier work
[5] = tested on: carboxylesterases (i.e., CES1b, CES1c, and CES2); experiment: Exploratory in vitro studies on enzymes catalyzing formation of M23; format: in vitro ADME; settings: Idorsia data on file
[6] = Quantification of M38 in pooled human plasma using a synthesized reference; format: in vivo; settings: non-radiolabelled metabolite
[7] = tested on: human liver microsomes (HLM); experiment: Incubation with HLMs and CYP-specific inhibitors; format: in vitro ADME; settings: 10 μM 14C-ACT-1004-1239, 1 μM ketoconazole (CYP3A4 inhibitor)

O=C(N[C@H]1CCN(CC2CC2)C[C@@H]1C(=O)NC1(c2ncccn2)CC1)c1cc(-c2ccc(F)cc2F)on1 [ACT-1004-1239]
contribution of CYP3A4 to total M1 formation (total turnover in vitro) (CYP3A4): 94%
contribution of CYP2C19 to M1 formation (CYP2C19): 5.2%
contribution of CYP2C8 to M1 formation (CYP2C8): 1.2%
plasma concentration of 14C-drug-related material after 72 h post-dose [1]: below the limit of quantification
Feces % of dose [2]: 5.2%
Urine % of dose [2]: 10.1%
safety and tolerability profile ([3]; healthy humans, dose range 1–200 mg, single and multiple dose, 2021b, Huynh et al., 2021a): favorable safety and tolerability profiles
time to reach maximum plasma concentration [tmax] ([3]; male and female subjects, oral 1-200 mg, 2021a, Huynh et al., 2021b): 1 to 3 h
accumulation at steady state ([3]; multiple-dose, 2021a): almost no accumulation
time to steady-state conditions of systemic exposure ([3]; multiple-dose, 2021a): ≤ 3 days
absolute bioavailability ([3]; 2021b): 53%
effect of food on the PK ([3]; 2021b): no relevant effect
volume of distribution ([3]; 2021b): 183 L
absorption in rats [4]: rapidly absorbed
volume of distribution in rats [4]: in excess of total body water

O=C(N[C@H]1CCNC[C@@H]1C(=O)NC1(c2ncccn2)CC1)c1cc(-c2ccc(F)cc2F)on1 [M1]
Urine + feces % of dose ([2]; 14C-radioactive dose excreted): 25.1%
Feces % of dose [2]: 23.7%
Urine % of dose [2]: 1.4%

O=C(O)c1cc(-c2ccc(F)cc2F)on1 [M23]
Plasma % in sample (relative abundance, % of total radioactivity) ([2]; cross-subject plasma pool, samples within 72 h): 21.1%
involvement of carboxylesterases in formation of M23 [5]: excluded the involvement of carboxylesterases

N[C@H]1CCN(CC2CC2)C[C@@H]1C(=O)NC1(c2ncccn2)CC1 [M38]
presence in pooled human plasma [6]: negligible

CC(=O)N1CCN(c2ccc(OCC3COC(Cn4ccnc4)(c4ccc(Cl)cc4Cl)O3)cc2)CC1 (stereo not shown) [ketoconazole]
formation of M1 in presence of inhibitor [7]: completely abolished
